# US9676708B2 (The Johns Hopkins University, priority 2012, dated 2017)
# Counter-ions that a name gives are not always drawn. Like-named read-outs stand apart in the source and are kept apart here.
# Assays:
# [1] = HNO yield from N2O headspace analysis after complete decomposition, compared to 2BrPA; format: physicochemical; conditions: for % HNO: 37° C. in PBS (pH 7.4), N2O headspace analysis, reported in comparison to 2BrPA (SEM 5%; n = 3); for HNO production compared to 2BrPA: in words; for HNO yield: of the amount of HNO from 2BrPA
# Text: As used herein, a compound is a “nitroxyl donor” if it donates nitroxyl under physiological conditions. As used herein, the presently disclosed nitroxyl donors alternatively may be referred to as “a compound” or “the compound.” Preferably, the nitroxyl donor is capable of donating an effective amount of nitroxyl in vivo and has a safety profile indicating the compound would be tolerated by an individual in the amount necessary to achieve a therapeutic effect. One of ordinary skill in the art would be able to determine the safety of administering particular compounds and dosages to live subjects. One of skill in the art also may determine whether a compound is a nitroxyl donor by evaluating whether it releases HNO under physiological conditions. Compounds are easily tested for nitroxyl donation with routine experiments. Although it is impractical to directly measure whether nitroxyl is donated, several tests are accepted for determining whether a compound donates nitroxyl. For example, the compound of interest can be placed in solution, for example in water, in a sealed container. After sufficient time for disassociation has elapsed, such as from several minutes to several hours, the headspace gas is withdrawn and analyzed to determine its composition, such as by gas chromatography and/or mass spectroscopy. If the gas N2O is formed (which occurs by HNO dimerization), the test is positive for nitroxyl donation and the compound is a nitroxyl donor. The level of nitroxyl-donating ability may be expressed as a percentage of a compound's theoretical maximum. A compound that donates a “significant level of nitroxyl” intends a compound that donates 40% or more or 50% or more of its theoretical maximum amount of nitroxyl. In one variation, the compounds for use herein donate 60% or more of the theoretical maximum amount of nitroxyl. In another variation, the compounds for use herein donate 70% or more of the theoretical maximum amount of nitroxyl. In another variation, the compounds for use herein donate 80% or more of the theoretical maximum amount of nitroxyl. In another variation, the compounds for use herein donate 90% or more of the theoretical maximum amount of nitroxyl. In yet another variation, the compounds for use herein donate between about 70% and about 90% of the theoretical maximum amount of nitroxyl. In yet another variation, the compounds for use herein donate between about 85% and about 95% of the theoretical maximum amount of nitroxyl. In yet another variation, the compounds for use herein donate between about 90% and about 95% of the theoretical maximum amount of nitroxyl.
# [2] = Decomposition of 2-bromo-benzenesulfonamidyl-alkylamino carbonates 2 (2BrPA release) in PBS, UV/vis or HPLC; format: physicochemical
# Method: The donor 2BrPA produces HNO in high yield at pH 7.4 with a single defined half-life of approximately 2 minutes. See U.S. Pat. No. 8,030,356, to Toscano et al., which is incorporated herein by reference in its entirety. Changing (R) on the trigger amine or the spacer length (n) in 2 makes it possible to tune the effective HNO production rate through controlled 2BrPA release (Table 2). Donors 2, with release rates slower than the half-life of 2BrPA, produce HNO at the rate of cyclization. The decomposition products, rates, and HNO production were analyzed and compared to 2BrPA (Table 2).
# [3] = Monitoring of 2d decomposition byproducts by NMR; format: physicochemical; conditions: decomposition of 2d
# Text: The cyclized byproduct 3, expected from an HNO forming pathway, from 2d, formed in approximately 60% yield (Scheme 4). The yield of 3 is consistent with the yield of HNO detected (64%) (Table 2). The cyclized product 5 also was identified and formed in approximately 10% yield. Another byproduct formed in approximately 30% yield.
# [4] = pH 7.4; see U.S. Pat. No. 8,030,356; cited from earlier work
Compound,% HNO [1] [%],HNO production compared to 2BrPA [1],HNO yield [1] [%],further results
"Cl.O=C(OCCNc1ccccc1)ONS(=O)(=O)c1ccccc1Br [Cmpd 2e, 2-Bromo-benzenesulfonamidyl-2-(phenylamino)-ethyl carbonate hydrochlo-ride]",91,,,
"CC(C)NCCCOC(=O)ONS(=O)(=O)c1ccccc1Br.Cl [Cmpd 2h, 2-Bromo-benzenesulfonamidyl-3-(iso-propylamino)-propyl carbonate hydro-chloride]",30,significantly lower,30,
COc1ccc(NCCOC(=O)ONS(=O)(=O)c2ccccc2Br)cc1 [hydrochloride],93,,,"half-life ([2]; 37° C. in PBS (pH 7.4), determined by UV/vis (SEM ± 5%; n = 3), read-out: t1/2 (converted)): 50 s; half-life ([2]; pH 7.4, fast-releasing derivatives (UV/vis values of Table 2), PBS buffer, read-out: half-life): 48 s"
"CC(C)(C)NCCOC(=O)ONS(=O)(=O)c1ccccc1Br [Cmpd 2d, 2-Bromo-benzenesulfonamidyl-2-(tert-butylamino)-ethyl carbonate hydrochl-oride]",64,significantly lower,64,"half-life ([2]; PBS, pH 7.4, 37° C. in PBS (pH 7.4), determined by HPLC (SEM ± 5%; n = 3), read-out: t1/2 (converted)): 2820 s; yield of another byproduct [3]: approximately 30%; yield of cyclized byproduct 3 (HNO forming pathway) [3]: approximately 60%; yield of cyclized product 5 [3]: approximately 10%"
"Cl.O=C(OCCNCc1ccccc1)ONS(=O)(=O)c1ccccc1Br [Cmpd 2b, 2-Bromo-benzenesulfonamidyl-2-(benzylamino)-ethyl carbonate hydrochlori-de]",99,,,
"CC(C)NCCOC(=O)ONS(=O)(=O)c1ccccc1Br [Cmpd 2c, 2-Bromo-benzenesulfonamidyl-2-(iso-propylamino)-ethyl carbonate hydroc-hloride]",97,,,"half-life ([2]; PBS buffer, pH 7.4, text, fast-releasing derivatives (UV/vis values of Table 2), PBS buffer, read-out: half-life): < 60 s; half-life ([2]; PBS, pH 7.4, 37° C. in PBS (pH 7.4), determined by UV/vis (SEM ± 5%; n = 3), read-out: t1/2 (converted)): 47 s"
O=C(OCCNc1ccc(Cl)cc1)ONS(=O)(=O)c1ccccc1Br [hydrochloride],69,significantly lower,69,"half-life ([2]; PBS, pH 7.4, slow-releasing derivatives (HPLC values of Table 2), read-out: half-life): 3000 s"
"CNCCOC(=O)ONS(=O)(=O)c1ccccc1Br.Cl [Cmpd 2a, 2-Bromo-benzenesulfonamidyl-2-(methylamino)-ethyl carbonate hydrochlor-ide]",93,,,
"O=S(=O)(NO)c1ccccc1Br [2BrPA, N-hydroxy-2-bromobenzenesulfonamide]",,,,HNO production [4]: high yield
